{"source": "patent US20090023687A1", "about": "“Method for Controlling Phytopathogenic Organisms” (SYNGENTA CROP PROTECTION, INC., priority 2005, published 2009)", "assay_type_in_all_cases": "in vivo", "key": {"[1]": {"system": "Phakopsora pachyrhizi", "experiment": "whole plant or invertebrate", "settings": "in Glycine max, foliar, read-out: % activity observed", "excerpt": "(§1) A synergistic effect exists whenever the action of an active ingredient combination is greater than the action expected from the effect of the individual components.\n(§2) The action to be expected (E) for a given active ingredient combination obeys the so-called COLBY formula and can be calculated as follows (COLBY, S. R. “Calculating synergistic and antagonistic responses of herbicide combination”. Weeds, Vol. 15, pages 20-22; 1967):\n(§3) ppm=milligrams of active ingredient (=a.i.) per litre of spray mixture X=% action by active ingredient I using p ppm of active ingredient Y=% action by active ingredient II using q ppm of active ingredient.\n(§4) According to Colby, the expected (additive) action of active ingredients I+II using p+q ppm of active ingredient is\n(§5) If the action actually observed (O) is greater than the expected action (E), then the action of the combination is superadditive, i.e. there is a synergistic effect.\nA series of leaf disc tests were conducted to show the effects of tank mixtures of glyphosate and the ortho-substituted phenyl-amide (OPA) fungicides represented by structures F-5 and F-9 on Asian soybean rust. The soybean variety tested was brand Williams82 glyphosate sensitive soybean. The leaf source for the testing was the first trifoliate leaf. Six (6) repetitions for each formulation and at each rate were conducted. Treatment of the leaf with the recited active ingredients was conducted 4 weeks after planting. The leaves were inoculated with Phakopsora pachyrhizi (Asian soybean rust (ASR)) one (1) day after treatment. Evaluation of the leaf was conducted ten (10) days after inoculation and the mean percent infestation of the six repetitions is reported in Tables 3 and 4.\nThe glyphosate source was Touchdown® HiTech herbicide (Syngenta Corp.), containing the potassium salt of glyphosate and no adjuvant system. The compound OPA F-5 used was a compound of formula F-5, wherein the ratio of racemic compounds of formula F-3 (syn) to racemic compounds of formula F-4 (anti) was 9:1. The compound OPA F-9 used was a compound of formula F-9, wherein the ratio of racemic compounds of formula F-7 (trans) to racemic compounds of formula F-8 (cis) was around 100:1. The fungicides used were EC100 formulations of OPA F-5 and OPA F-9 which are emulsion concentrates containing 100 ga.i./L. The rates of the active ingredients used in the tests are set in the table as mg active ingredient (a.i.)/L."}, "[2]": {"system": "Puccinia recondita", "experiment": "Greenhouse trial with Puccinia recondita on glyphosate sensitive wheat (Example 3)", "settings": "read-out: % activity observed", "excerpt": "as §1, §2, §3, §4, §5\nGreenhouse tests were conducted to show the effects of tank mixtures of glyphosate and the ortho-substituted phenyl-amide (OPA) fungicides represented by structures F-10, F-5 and F-9 on cereal rust Puccinia recondita. The wheat variety tested was brand Kanzler glyphosate sensitive wheat. Three (3) repetitions for each formulation and at each rate were conducted. Treatment of the plants with the recited active ingredients was conducted preventatively 16 days after planting. The leaves were inoculated with Puccinia recondita one (1) day after treatment. Evaluation of the leaf was conducted […] after inoculation and the mean percent infestation of the three repetitions is reported in Tables 5-7.\nThe glyphosate source was Zapp® QI herbicide containing the potassium salt of glyphosate as well as an adjuvant system. The compound OPA F-5 used was a compound of formula F-5, wherein the ratio of racemic compounds of formula F-3 (syn) to racemic compounds of formula F-4 (anti) was 9:1. The compound OPA F-9 used was a compound of formula F-9, wherein the ratio of racemic compounds of formula F-7 (trans) to racemic compounds of formula F-8 (cis) was around 100:1. The fungicides used were EC 100 formulations of OPA F-10, OPA F-5 and OPA F-9 which are emulsion concentrates containing 100 ga.i./L. The rates of the active ingredients used in the tests are set in Tables 5-7 as mg active ingredient (a.i.)/L."}, "[3]": {"system": "Phakopsora pachyrhizi", "experiment": "Application on whole plants: leaf disc test with Phakopsora pachyrhizi on glyphosate tolerant soybean (Example 6)", "excerpt": "as §1, §2, §3, §4, §5\nLeaf disc tests were conducted to show the effects of tank mixtures of glyphosate and pesticides or plant activators on Asian soybean rust. The soybean variety tested was brand S40-R9 glyphosate tolerant soybean. The leaf source for the testing was the first trifoliate leaf. Six (6) repetitions for each formulation and at each rate were conducted. […] were cut and inoculated with Phakopsora pachyrhizi (Asian soybean rust (ASR)) one (1) day after treatment. Evaluation of the leaf was conducted ten (10) days after inoculation and the mean percent infestation of the six repetitions is reported in Tables 15-17.\nAs glyphosate source Touchdown® HiTech or Zapp® QI was used. The fungicides were used as commercial formulations: Bravo® SC500 fungicide comprising chlorothalonil (Syngenta Corp.), Score® EC250 fungicide comprising difenaconazole (Syngenta Corp.) and Mancozeb 80WP fungicide comprising mancozeb. The rates of the active ingredients used in the tests are set in Tables 15-17 as g active ingredient (a.i.)/hectare (ha). The spray volume was 200 l/ha."}, "[4]": {"settings": "Glyphosate TD HiTech SL523 500 g a.i./ha, Tables 15, 17 (check 60)"}, "[5]": {"settings": "Glyphosate TD HiTech SL523 1500 g a.i./ha, Table 16 (check 49)"}, "[6]": {"settings": "Glyphosate TD HiTech SL523 1500 g a.i./ha, Tables 15, 17 (check 60)"}}}
{"smiles": "O=C(O)CNCP(=O)(O)O", "note": "[Glyphosate, glyphosate]", "values": [{"measurement": "inhibition at 2.5 µg/mL", "setting": "[1]; Glyphosate 2.5 mg a.i./L (Touchdown HiTech)", "result": 0, "unit": "%"}, {"measurement": "inhibition at 7.4 µg/mL", "setting": "[1]; Glyphosate 7.4 mg a.i./L (Touchdown HiTech)", "result": 0, "unit": "%"}, {"measurement": "inhibition at 22.2 µg/mL", "setting": "[1]; Glyphosate 22.2 mg a.i./L (Touchdown HiTech)", "result": 14, "unit": "%"}, {"measurement": "inhibition at 66.7 µg/mL", "setting": "[1]; Glyphosate 66.7 mg a.i./L (Touchdown HiTech)", "result": 0, "unit": "%"}, {"measurement": "inhibition at 200 µg/mL", "setting": "[1]; Glyphosate 200.0 mg a.i./L (Touchdown HiTech)", "result": 0, "unit": "%"}, {"measurement": "inhibition at 600 µg/mL", "setting": "[1]; Glyphosate 600 mg a.i./L (Touchdown HiTech)", "result": 34, "unit": "%"}, {"measurement": "inhibition at 66 µg/mL", "setting": "[2]; Glyphosate 66 mg a.i./L (Zapp QI)", "result": 0, "unit": "%"}, {"measurement": "inhibition at 200 µg/mL", "setting": "[2]; Glyphosate 200 mg a.i./L (Zapp QI)", "result": 42, "unit": "%"}, {"measurement": "Activity observed %", "setting": "[3]; [4]", "result": 0, "unit": "%"}, {"measurement": "Leaf attack %", "setting": "[3]; [4]", "result": 68, "unit": "%"}, {"measurement": "Activity observed %", "setting": "[3]; [5]", "result": 44, "unit": "%"}, {"measurement": "Leaf attack %", "setting": "[3]; [5]", "result": 28, "unit": "%"}, {"measurement": "Activity observed %", "setting": "[3]; [6]", "result": 17, "unit": "%"}, {"measurement": "Leaf attack %", "setting": "[3]; [6]", "result": 50, "unit": "%"}]}
